Data on 55 compounds can be found in patent US10752612B2, “PLK4 inhibitors” (LUDWIG INSTITUTE FOR CANCER RESEARCH LTD, priority 2015, dated 2020).

By IC50 is commonly meant the concentration that inhibits the measured activity by half.

Bounds are passed on as bounds.

This assay deals with T1, human Plk4 kinase domain (aa 2-275) (Homo sapiens, UniProt O00444).
T1 construct: purified 6×His-tagged human Plk4 kinase domain (aa 2-275); 6xHis; made in house; host or cells: E. coli
T1 sequence (O00444 2-275): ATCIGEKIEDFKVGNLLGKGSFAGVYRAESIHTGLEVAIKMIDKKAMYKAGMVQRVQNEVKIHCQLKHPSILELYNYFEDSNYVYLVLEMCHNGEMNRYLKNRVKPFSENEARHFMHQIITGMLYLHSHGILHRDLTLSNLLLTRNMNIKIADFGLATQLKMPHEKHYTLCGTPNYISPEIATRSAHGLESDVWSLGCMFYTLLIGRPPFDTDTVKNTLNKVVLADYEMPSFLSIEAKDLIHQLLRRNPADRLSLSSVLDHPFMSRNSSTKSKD
The assay is described as follows: Plk4 kinase assay (ADP-Glo). In kind it is biochemical. As to conditions: Table 1. The method in brief:
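Enzyme at 2.5-10 nM final, pH 8.0, reacted 4-16 hours at 25° C; ADP generation read by ADP-Glo luminescence. Ki derived from IC50 by Cheng-Prusoff or, for tight binders, Copeland formalism.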
For orientation: ADP-Glo turns the ADP formed in a reaction into a luminescent signal.
Compound `CCc1c(C)nc(Sc2ccc(NC(=O)C3CC3)cc2)nc1Nc1cc(C)[nH]n1` showed an IC50 greater than 1000 nM. Next, `COc1c(Nc2cc(C)[nH]n2)nc(Sc2ccc(NC(=O)C3CC3)cc2)nc1N1CCN(C)CC1`: less than 1000 nM. Compound `Cc1cc(Nc2nc(Sc3ccc(NC(=O)C4CC4)cc3)nc(N3CCOCC3)c2C)n[nH]1` came in with a half-inhibitory concentration (IC50) of less than 1000 nM. Under `COc1c(C)nc(Sc2ccc(NC(=O)C3CC3)cc2)nc1Nc1cc(C)[nH]n1` stands less than 1000 nM. Next, `Cc1cc(Nc2nc(Sc3ccc(NC(=O)C4CC4)cc3)nc3c2C(C)CC3)n[nH]1` (stereo not shown): less than 1000 nM.

For `COCCN1CCN(c2nc(Sc3ccc(NC(=O)C4CCCC4)cc3)nc(Nc3cc(C)[nH]n3)c2OC)CC1`, the IC50 was less than 1000 nM.

`CCOc1c(Nc2cc(C)[nH]n2)nc(Sc2ccc(NC(=O)C3CC3)cc2)nc1N1CCOCC1` gave an IC50 of less than 1000 nM. Under `CCOc1c(Nc2cc(C)[nH]n2)nc(Sc2ccc(NC(=O)C3CC3)cc2)nc1N1CCCCC1` stands 100 to 1000 nM.

For the compound `COc1c(Nc2cc(C)[nH]n2)nc(Sc2ccc(NC(=O)C3CCCC3)cc2)nc1N1CCN(C)CC1`, the IC50 is less than 1000 nM.

The compound `COc1c(Nc2cc(C)[nH]n2)nc(Sc2ccc(NC(=O)C3CCCC3)cc2)nc1N1CCNCC1` yielded a concentration for half-maximal inhibition (IC50) of less than 1000 nM.

`COc1c(Nc2cc(C)[nH]n2)nc(Sc2ccc(NC(=O)C3CCCC3)cc2)nc1N1CCN(CCN(C)C)CC1`: the IC50 was less than 1000 nM. Under `CCOc1c(Nc2cc(C)[nH]n2)nc(Sc2ccc(NC(=O)C3CC3)cc2)nc1N1CCN(CCN(C)C)CC1` stands 100 to 1000 nM; under `CCOc1c(NCCOC)nc(Sc2ccc(NC(=O)C3CC3)cc2)nc1Nc1cc(C)[nH]n1`, 100 to 1000 nM; under `CCOc1c(Nc2cc(C)[nH]n2)nc(Sc2ccc(NC(=O)C3CC3)cc2)nc1N1CCN(C(C)=O)CC1`, 100 to 1000 nM. Under `CCOc1c(Nc2cc(C)[nH]n2)nc(Sc2ccc(NC(=O)C3CC3)cc2)nc1N1CCN(CCOC)CC1` stands 100 to 1000 nM; under `CCOc1c(Nc2cc(C)[nH]n2)nc(Sc2ccc(NC(=O)C3CC3)cc2)nc1N(C)CCOC`, 100 to 1000 nM; under `COc1c(Nc2cc(C)[nH]n2)nc(Sc2ccc(NC(=O)C3CC3)cc2)nc1N1CCN(C2CCN(C)CC2)CC1`, less than 1000 nM. Next, `COc1c(Nc2cc(C)[nH]n2)nc(Sc2ccc(NC(=O)C3CC3)cc2)nc1N1CCN(C(=O)CN(C)C)CC1`: less than 1000 nM. As to `COc1c(Nc2cc(C)[nH]n2)nc(Sc2ccc(NC(=O)C3CC3)cc2)nc1N1CCN(C(=O)CCN(C)C)CC1`, the IC50 is less than 1000 nM. Next, `COCC(=O)N1CCN(c2nc(Sc3ccc(NC(=O)C4CC4)cc3)nc(Nc3cc(C)[nH]n3)c2OC)CC1`: less than 1000 nM; `COCCC(=O)N1CCN(c2nc(Sc3ccc(NC(=O)C4CC4)cc3)nc(Nc3cc(C)[nH]n3)c2OC)CC1`: less than 1000 nM; `COc1c(Nc2cc(C)[nH]n2)nc(Sc2ccc(NC(=O)C3CC3)cc2)nc1N1CCN(CC2CC2)CC1`: less than 1000 nM. Next, `CNCCN1CCN(c2nc(Sc3ccc(NC(=O)C4CC4)cc3)nc(Nc3cc(C)[nH]n3)c2OC)CC1`: less than 1000 nM; `COc1c(Nc2cc(C)[nH]n2)nc(Sc2ccc(NC(=O)C3CC3)cc2)nc1N1CCN(c2ccccc2)CC1`: 100 to 1000 nM; `CCOc1c(Nc2cc(C)[nH]n2)nc(Sc2ccc(NC(C)=O)cc2)nc1N1CCCCC1`: 100 to 1000 nM.

Compound `CCOc1c(Nc2cc(C)[nH]n2)nc(Sc2ccc(NC(C)=O)cc2)nc1N1CCNCC1` came in with an IC50 of 100 to 1000 nM. Under `CCOc1c(Nc2cc(C)[nH]n2)nc(Sc2ccc(NC(C)=O)cc2)nc1N1CCOCC1` stands 100 to 1000 nM; under `CCOc1c(Nc2cc(C)[nH]n2)nc(Sc2ccc(NC(C)=O)cc2)nc1N(CC)CC`, 100 to 1000 nM; under `CCOc1c(Nc2cc(C)[nH]n2)nc(Sc2ccc(NC(C)=O)cc2)nc1N(C)CC`, 100 to 1000 nM. Under `CCOc1c(Nc2cc(C)[nH]n2)nc(Sc2ccc(NC(C)=O)cc2)nc1N1CCN(C(C)=O)CC1` stands 100 to 1000 nM; under `CCOc1c(Nc2cc(C)[nH]n2)nc(Sc2ccc(NC(C)=O)cc2)nc1N1CCN(CCOC)CC1`, 100 to 1000 nM.

The compound `CCOc1c(Nc2cc(C)[nH]n2)nc(Sc2ccc(NC(C)=O)cc2)nc1N1CCN(CCN(C)C)CC1` returned an IC50 of 100 to 1000 nM.

Turning to `CCOc1c(Nc2cc(C)[nH]n2)nc(Sc2ccc(NC(=O)C3CCCC3)cc2)nc1N1CCCCC1`, the IC50 lay within 100 to 1000 nM. Next, `CCOc1c(Nc2cc(C)[nH]n2)nc(Sc2ccc(NC(=O)C3CCCC3)cc2)nc1N1CCNCC1`: 100 to 1000 nM. Under `CCOc1c(Nc2cc(C)[nH]n2)nc(Sc2ccc(NC(=O)C3CCCC3)cc2)nc1N1CCOCC1` stands 100 to 1000 nM; under `CCOc1c(Nc2cc(C)[nH]n2)nc(Sc2ccc(NC(=O)C3CCCC3)cc2)nc1N(CC)CC`, greater than 1000 nM; under `CCOc1c(Nc2cc(C)[nH]n2)nc(Sc2ccc(NC(=O)C3CCCC3)cc2)nc1N(C)CC`, 100 to 1000 nM. Next, `CCOc1c(Nc2cc(C)[nH]n2)nc(Sc2ccc(NC(=O)C3CCCC3)cc2)nc1N1CCN(C(C)=O)CC1`: 100 to 1000 nM; `CCOc1c(Nc2cc(C)[nH]n2)nc(Sc2ccc(NC(=O)C3CCCC3)cc2)nc1N1CCN(CCOC)CC1`: 100 to 1000 nM; `CCOc1c(Nc2cc(C)[nH]n2)nc(Sc2ccc(NC(=O)C3CCCC3)cc2)nc1N1CCN(CCN(C)C)CC1`: 100 to 1000 nM. `COc1c(Nc2cc(C)[nH]n2)nc(Sc2ccc(NC(=O)C3CC3)cc2)nc1NC1CCNCC1` returned an IC50 of 100 to 1000 nM.

Take `CCC1CCc2nc(Sc3ccc(NC(=O)C4CC4)cc3)nc(Nc3cc(C)[nH]n3)c21` (stereo not shown): the IC50 is less than 1000 nM. Under `Cc1cc(Nc2nc(Sc3ccc(NC(=O)C4CCC4)cc3)nc(N3CCN(C)CC3)c2C)n[nH]1` stands less than 1000 nM; under `CC(=O)Nc1ccc(Sc2nc(Nc3cc(C)[nH]n3)c(C)c(N3CCN(C)CC3)n2)cc1`, less than 1000 nM. Under `CCOc1c(Nc2cc(C)[nH]n2)nc(Sc2ccc(NC(=O)C3CC3)cc2)nc1N1CCN(C(=O)COC)CC1` stands 100 to 1000 nM; under `CCOc1c(Nc2cc(C)[nH]n2)nc(Sc2ccc(NC(=O)C3CC3)cc2)nc1N1CCN(C(=O)CCN(C)C)CC1`, 100 to 1000 nM. Under `CCOc1c(Nc2cc(C)[nH]n2)nc(Sc2ccc(NC(=O)C3CC3)cc2)nc1N1CCN(C(=O)CCOC)CC1` stands 100 to 1000 nM; under `CCOc1c(Nc2cc(C)[nH]n2)nc(Sc2ccc(NC(=O)C3CC3)cc2)nc1N1CCN(C2CCN(C)CC2)CC1`, 100 to 1000 nM. In turn, `CCOc1c(Nc2cc(C)[nH]n2)nc(Sc2ccc(NC(=O)C3CC3)cc2)nc1N1CCN(CC2CC2)CC1` registered an IC50 of 100 to 1000 nM. Next, `CCOc1c(Nc2cc(C)[nH]n2)nc(Sc2ccc(S(=O)(=O)Cc3cc(F)ccc3F)cc2)nc1N1CCN(CCN(C)C)CC1`: less than 1000 nM; `COc1c(Nc2cc(C)[nH]n2)nc(Sc2ccc(S(=O)(=O)Cc3cccc(-c4ccccc4)c3)cc2)nc1N1CCN(CCN(C)C)CC1`: less than 1000 nM; `COc1c(Nc2cc(C)[nH]n2)nc(Sc2ccc(S(=O)(=O)Cc3cccc(C(C)=O)c3)cc2)nc1N1CCN(CCN(C)C)CC1`: less than 1000 nM. Under `COc1c(Nc2cc(C)[nH]n2)nc(Sc2ccc(S(=O)(=O)Cc3cccc([N+](=O)[O-])c3)cc2)nc1N1CCOCC1` stands less than 1000 nM. `COc1c(Nc2cc(C)[nH]n2)nc(Sc2ccc(S(=O)(=O)Cc3ccccc3)cc2)nc1N1CCN(Cc2ccccc2)CC1` came in with a 50% inhibitory concentration (IC50) of less than 1000 nM.

In the case of `COc1c(Nc2cc(C)[nH]n2)nc(Sc2ccc(S(=O)(=O)Cc3ccccc3)cc2F)nc1N1CCN(CCN(C)C)CC1`, the IC50 is less than 1000 nM.
